Laboratory results from patent US6703397B2, “Pyrimidinyl methyl indole derivatives with antibacterial activity” (Basilea Pharmaceutica AG, priority 2000, dated 2004).
Converted amounts (≈) assume the structure as drawn. Where two headings read alike, the source gives them in different places.

Columns and labels:
[1] = molecular target: purified DHFR of strain Spn1/1 (Streptococcus pneumoniae serotype 4, UniProt Q54801, E20D/I100L/L135F/P70S/Q81H); assay: biochemical
From the text: Col. 3: DHFR Spn1/1; μM)—the IC50-values in μM against the purified DHFR of the above strain Spn1/1; of Streptococcus pneumoniae.

[2] = tested on: Streptococcus pneumoniae ATCC 49619; assay: MIC against Streptococcus pneumoniae ATCC 49619 (trimethoprim- and penicillin-susceptible reference strain); type: cell-based; settings: Streptococcus pneumoniae ATCC 49619, trimethoprim- and penicillin-susceptible; for MIC: ATCC49619, read-out: Spn 49619 MIC
Experimental: The following Tables 1 and 2 contain inhibitory concentrations determined in the above test for representative members of the class of compound defined by formula I. The following microorganisms were tested: Col. 1: […]

[3] = tested on: Streptococcus pneumoniae 1/1; assay: MIC against Streptococcus pneumoniae 1/1 (trimethoprim- and penicillin-resistant clinical isolate, serotype 6); type: cell-based; settings: Streptococcus pneumoniae 1/1, trimethoprim- and penicillin-resistant, serotype 6; for MIC: read-out: Spn 1/1 MIC
Experimental: The following Tables 1 and 2 contain inhibitory concentrations determined in the above test for representative members of the class of compound defined by formula I. The following microorganisms were tested: […]
Col. 2: MIC Spn1/1; μg/ml (Streptococcus pneumoniae 1/1, Trimethoprim- and Penicillin-resistant, Serotype 6; clinical isolate, stored at −80° C.). Lit.: H. Locher et al., Can. J. Infect. Dis. 6: Suppl. C, p 469C.

Sequence of purified DHFR of strain Spn1/1 (Q54801 whole entry E20D/P70S/Q81H/I100L/L135F): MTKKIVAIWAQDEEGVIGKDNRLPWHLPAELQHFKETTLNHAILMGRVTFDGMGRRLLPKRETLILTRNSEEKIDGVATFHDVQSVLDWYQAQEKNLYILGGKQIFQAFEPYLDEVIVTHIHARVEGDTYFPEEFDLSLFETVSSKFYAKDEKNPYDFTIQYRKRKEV

Molecule	IC50 ([1]; purified DHFR of S. pneumoniae strain Spn1/1, read-out: Spn 1/1 IC50)	Spn 49619 MIC [2]	Spn 1/1 MIC [3]	IC50 [1]	MIC [2]	MIC [3]
6-(2,4-Diamino-pyrimidin-5-ylmethyl)-4-ethoxy-indole-1-sulfonic Acid dimethylamide [Example 2e]	0.11 µM	0.06 µg/mL	4 µg/mL			
CCn1cc(CN2CC(C)OC(C)C2)c2c(OS(=O)(=O)C(C)C)cc(Cc3cnc(N)nc3N)cc21 (mixture of isomers) [Example 10d, (cis/trans)-Propane-2-sulfonic acid 6-(2,4-diamino-pyrimidin-5-ylmethyl)-3-(2,6-dimethyl-morpholin-4-ylmethyl)-1-ethyl-1H-indol-4-yl ester]				0.25 µM	1 µg/mL	8 µg/mL
CCC(C)S(=O)(=O)Oc1cc(Cc2cnc(N)nc2N)cc2c1ccn2C (racemic) [Example 5e, rac-Butane-2-sulfonic acid 6-(2,4-diamino-pyrimidin-5-ylmethyl)-1-methyl-1H-indol-4-yl ester]				0.013 µM	0.125 µg/mL (≈ 0.321 µM)	8 µg/mL (≈ 20.5 µM)
CCn1ccc2c(OCC3CCCO3)cc(Cc3cnc(N)nc3N)cc21 (racemic) [Example 7i, rac-5-[1-Ethyl-4-(tetrahydro-furan-2-ylmethoxy)-1H-indol-6-ylmethyl]-pyrimidine-2,4-diamine]				0.013 µM	0.5 µg/mL (≈ 1.36 µM)	8 µg/mL (≈ 21.8 µM)
CCC(C)S(=O)(=O)Oc1cc(Cc2cnc(N)nc2N)cc2c1ccn2CC (racemic) [Example 8d, rac-Butane-2-sulfonic acid 6-(2,4-diamino-pyrimidin-5-ylmethyl)-1-ethyl-1H-indol-4-yl ester]				0.0018 µM	0.03 µg/mL (≈ 0.0743 µM)	1 µg/mL (≈ 2.48 µM)
CCC(C)S(=O)(=O)Oc1cc(Cc2cnc(N)nc2N)cc2c1cc(C)n2CC (racemic) [Example 15c, rac-Butane-2-sulfonic acid 6-(2,4-diamino-pyrimidin-5-ylmethyl)-1-ethyl-2-methyl-1H-indol-4-yl ester]				0.0087 µM	0.03 µg/mL (≈ 0.0719 µM)	2 µg/mL (≈ 4.79 µM)
CCOc1cc(Cc2cnc(N)nc2N)cc(OCC)c1-n1cccc1 [Epiroprim, reference compound]				0.19 µM	0.125 µg/mL (≈ 0.354 µM)	4 µg/mL (≈ 11.3 µM)
CCOc1cc(Cc2cnc(N)nc2N)cc2c1ccn2CC1CC1 [Example 2a, 5-(1-cyclopropylmethyl-4-ethoxy-1H-indol-6-ylmethyl)-pyrimidine-2,4-diamine]				0.11 µM	0.5 µg/mL (≈ 1.48 µM)	> 8 µg/mL
CCOc1cc(Cc2cnc(N)nc2N)cc2c1ccn2C1CCCC1 [Example 2b, 5-(1-Cyclopentyl-4-ethoxy-1H-indol-6-ylmethyl)-pyrimidine-2,4-diamine]				0.15 µM	0.5 µg/mL (≈ 1.42 µM)	8 µg/mL (≈ 22.8 µM)
CCOc1cc(Cc2cnc(N)nc2N)cc2c1ccn2Cc1ccccc1 [Example 2c, 5-(1-Benzyl-4-ethoxy-1H-indol-6-ylmethyl)-pyrimidine-2,4-diamine]				0.46 µM	2 µg/mL (≈ 5.36 µM)	> 8 µg/mL
CCOc1cc(Cc2cnc(N)nc2N)cc2c1ccn2S(=O)(=O)C(C)C [Example 2d, 5-[4-Ethoxy-1-(propane-2-sulfonyl)-1H-indol-6-ylmethyl]-pyrimidine-2,4-diamine]				0.33 µM	0.5 µg/mL (≈ 1.28 µM)	> 8 µg/mL
CCOc1cc(Cc2cnc(N)nc2N)cc2c1ccn2CC [Example 3, 5-(4-Ethoxy-1-ethyl-1H-indol-6-ylmethyl)-pyrimidine-2,4-diamine]				0.024 µM	0.125 µg/mL (≈ 0.401 µM)	4 µg/mL (≈ 12.8 µM)
Cn1ccc2c(OCC3CC3)cc(Cc3cnc(N)nc3N)cc21 [Example 5a, 5-(4-Cyclopropylmethoxy-1-methyl-1H-indol-6-ylmethyl)-pyrimidine-2,4-diamine]				0.11 µM	0.25 µg/mL (≈ 0.773 µM)	4 µg/mL (≈ 12.4 µM)
CC(C)Oc1cc(Cc2cnc(N)nc2N)cc2c1ccn2C [Example 5b, 5-(4-Isopropoxy-1-methyl-1H-indol-6-ylmethyl)-pyrimidine-2,4-diamine]				0.17 µM	0.5 µg/mL (≈ 1.61 µM)	> 8 µg/mL
CC(C)S(=O)(=O)Oc1cc(Cc2cnc(N)nc2N)cc2c1ccn2C [Example 5c, Propane-2-sulfonic acid 6-(2,4-diamino-pyrimidin-5-ylmethyl)-1-methyl-1H-indol-4-yl ester]				0.084 µM	0.25 µg/mL (≈ 0.666 µM)	4 µg/mL (≈ 10.7 µM)
CC(C)CS(=O)(=O)Oc1cc(Cc2cnc(N)nc2N)cc2c1ccn2C [Example 5d, 2-Methyl-propane-1-sulfonic acid 6-(2,4-diamino-pyrimidin-5-ylmethyl)-1-methyl-1H-indol-4-yl ester]				0.036 µM	0.125 µg/mL (≈ 0.321 µM)	4 µg/mL (≈ 10.3 µM)

Molecule	IC50 ([1]; purified DHFR of S. pneumoniae strain Spn1/1, read-out: Spn 1/1 IC50)	Spn 49619 MIC [2]	Spn 1/1 MIC [3]	IC50 [1]	MIC [2]	MIC [3]
CCn1ccc2c(OCC3CC3)cc(Cc3cnc(N)nc3N)cc21 [Example 7a, 5-(4-Cyclopropylmethoxy-1-ethyl-1H-indol-6-ylmethyl)-pyrimidine-2,4-diamine]				0.021 µM	0.125 µg/mL (≈ 0.37 µM)	4 µg/mL (≈ 11.9 µM)
CCn1ccc2c(OC)cc(Cc3cnc(N)nc3N)cc21 [Example 7b, 5-(1-Ethyl-4-methoxy-1H-indol-6-ylmethyl)-pyrimidine-2,4-diamine]				0.41 µM	0.5 µg/mL (≈ 1.68 µM)	8 µg/mL (≈ 26.9 µM)
CCn1ccc2c(OC(C)C)cc(Cc3cnc(N)nc3N)cc21 [Example 7c, 5-(1-Ethyl-4-isopropoxy-1H-indol-6-ylmethyl)-pyrimidine-2,4-diamine]				0.14 µM	0.25 µg/mL (≈ 0.768 µM)	4 µg/mL (≈ 12.3 µM)
C#CCOc1cc(Cc2cnc(N)nc2N)cc2c1ccn2CC [Example 7d, 5-(1-Ethyl-4-prop-2-ynyloxy-1H-indol-6-ylmethyl)-pyrimidine-2,4-diamine]				0.071 µM	0.125 µg/mL (≈ 0.389 µM)	8 µg/mL (≈ 24.9 µM)
CCn1ccc2c(OCC3OCCO3)cc(Cc3cnc(N)nc3N)cc21 [Example 7e, 5-[4-([1,3]Dioxolan-2-ylmethoxy)-1-ethyl-1H-indol-6-ylmethyl]-pyrimidine-2,4-diamine]				0.21 µM	1 µg/mL (≈ 2.71 µM)	8 µg/mL (≈ 21.7 µM)
CCn1ccc2c(OCC3CCC3)cc(Cc3cnc(N)nc3N)cc21 [Example 7f, 5-(4-Cyclobutylmethoxy-1-ethyl-1H-indol-6-ylmethyl)-pyrimidine-2,4-diamine]				0.041 µM	0.5 µg/mL (≈ 1.42 µM)	2 µg/mL (≈ 5.69 µM)
CCn1ccc2c(OCC(C)C)cc(Cc3cnc(N)nc3N)cc21 [Example 7g, 5-(1-Ethyl-4-isobutoxy-1H-indol-6-ylmethyl)-pyrimidine-2,4-diamine]				0.029 µM	0.5 µg/mL (≈ 1.47 µM)	2 µg/mL (≈ 5.89 µM)
CCn1ccc2c(OCC3(C)CC3)cc(Cc3cnc(N)nc3N)cc21 [Example 7h, 5-[1-Ethyl-4-(1-methyl-cyclopropylmethoxy)-1H-indol-6-ylmethyl]-pyrimidine-2,4-diamine]				0.015 µM	1 µg/mL (≈ 2.85 µM)	4 µg/mL (≈ 11.4 µM)
CCn1ccc2c(OS(=O)(=O)C(C)C)cc(Cc3cnc(N)nc3N)cc21 [Example 8a, Propane-2-sulfonic acid 6-(2,4-diamino-pyrimidin-5-ylmethyl)-1-ethyl-1H-indol-4-yl ester]				0.028 µM	0.03 µg/mL (≈ 0.077 µM)	1 µg/mL (≈ 2.57 µM)
CCn1ccc2c(OS(=O)(=O)CC3CC3)cc(Cc3cnc(N)nc3N)cc21 [Example 8b, Cyclopropyl-methanesulfonic acid 6-(2,4-diamino-pyrimidin-5-ylmethyl)-1-ethyl-1H-indol-4-yl ester]				0.0015 µM	≤ 0.015 µg/mL	1 µg/mL (≈ 2.49 µM)
CCn1ccc2c(OS(=O)(=O)CC(C)C)cc(Cc3cnc(N)nc3N)cc21 [Example 8c, 2-Methyl-propane-1-sulfonic acid 6-(2,4-diamino-pyrimidin-5-ylmethyl)-1-ethyl-1H-indol-4-yl ester]				0.0015 µM	≤ 0.015 µg/mL	2 µg/mL (≈ 4.96 µM)
CCn1ccc2c(OS(=O)(=O)N(C)C)cc(Cc3cnc(N)nc3N)cc21 [Example 9, Dimethyl-sulfamic Acid 6-(2,4-diamino-pyrimidin-5-ylmethyl)-1-ethyl-1H-indol-4-yl ester]				0.029 µM	0.03 µg/mL (≈ 0.0768 µM)	2 µg/mL (≈ 5.12 µM)
CCn1cc(CN2CCOCC2)c2c(OCC3CC3)cc(Cc3cnc(N)nc3N)cc21 [Example 10a, 5-(4-Cyclopropylmethoxy-1-ethyl-3-morpholin-4-ylmethyl-1H-indol-6-ylmethyl)-pyrimidine-2,4-diamine]				0.18 µM	0.25 µg/mL (≈ 0.573 µM)	8 µg/mL (≈ 18.3 µM)
CCn1cc(CN2CCOCC2)c2c(OS(=O)(=O)C(C)C)cc(Cc3cnc(N)nc3N)cc21 [Example 10b, Propane-2-sulfonic acid 6-(2,4-diamino-pyrimidin-5-ylmethyl)-1-ethyl-3-morpholino-4-ylmethyl-1H-indol-4-ester]				0.11 µM	0.5 µg/mL (≈ 1.02 µM)	8 µg/mL (≈ 16.4 µM)
CCn1cc(CN2CCSCC2)c2c(OS(=O)(=O)C(C)C)cc(Cc3cnc(N)nc3N)cc21 [Example 10c, Propane-2-sulfonic acid 6-(2,4-diamino-pyrimidin-5-ylmethyl)-1-ethyl-3-thiomorpholin-4-ylmethyl-1H-indol-4-yl ester]				0.16 µM	1 µg/mL (≈ 1.98 µM)	4 µg/mL (≈ 7.93 µM)
COc1cc(Cc2cnc(N)nc2N)cc(OC)c1OC [Trimethoprim, reference compound]					4 µg/mL (≈ 13.8 µM)	> 32 µg/mL
